Experimental data taken from the supplement of paper PMC10883282.
± gives the standard deviation of the averaged measurements.

Assays:
Test in all cases: relative viability vs DMSO control (72 h) (fraction); higher = more viable cells
[1] = test system: HS729
Method in brief: (§1)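 Plates held 72 h at 37 °C and 5% CO2 contained sarcoma cell lines seeded in 384-well format to reach 80–90% confluence, plus 2.5 µl of serially diluted compound added after 24 h. Source plate concentrations ran from 10 mM to 0.0002 mM, with 0.1% DMSO as vehicle and a 5 µM positive control. Percent growth from ATPLite readings, averaged over up to triplicate wells, gave relative viability. Values were rescaled with 1 as full and 0 as none.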

[2] = test system: HT1080
Method in brief: as §1

[3] = test system: SW684
Method in brief: as §1

[4] = test system: KHOS-NP
Method in brief: as §1

[5] = test system: A204
Method in brief: as §1

[6] = test system: VA-ES-BJ
Method in brief: as §1

[7] = test system: SW982
Method in brief: as §1

[8] = test system: SK-ES-1
Method in brief: as §1

[9] = test system: SK-LMS-1
Method in brief: as §1

[10] = test system: SW872
Method in brief: as §1

[11] = test system: RD-ES
Method in brief: as §1

[12] = test system: G401
Method in brief: as §1

COc1cc2c(Oc3ccc4[nH]c(C)cc4c3F)ccnc2cc1OCC1(N)CC1 [Anlotinib]
relative viability ([1]; 0.00017 µM): 0.944 ± 0.041 | relative viability ([1]; 0.00051 µM): 0.908 ± 0.044 | relative viability ([1]; 0.00152 µM): 0.951 ± 0.04 | relative viability ([1]; 0.00457 µM): 0.917 ± 0.016 | relative viability ([1]; 0.01372 µM): 0.935 ± 0.035 | relative viability ([1]; 0.04115 µM): 0.909 ± 0.048 | relative viability ([1]; 0.1235 µM): 0.911 ± 0.052 | relative viability ([1]; 0.3704 µM): 0.795 ± 0.071 | relative viability ([1]; 1.111 µM): 0.769 ± 0.025 | relative viability ([1]; 3.333 µM): 0.678 ± 0.051 | relative viability ([1]; 10 µM): 0.383 ± 0.026 | relative viability ([2]; 0.00017 µM): 1.023 ± 0.0019 | relative viability ([2]; 0.00051 µM): 1.03 ± 0.019 | relative viability ([2]; 0.00152 µM): 1.04 ± 0.0075 | relative viability ([2]; 0.00457 µM): 1.03 ± 0.03 | relative viability ([2]; 0.01372 µM): 1.05 ± 0.046 | relative viability ([2]; 0.04115 µM): 1.05 ± 0.036 | relative viability ([2]; 0.1235 µM): 1.07 ± 0.012 | relative viability ([2]; 0.3704 µM): 1.08 ± 0.031 | relative viability ([2]; 1.111 µM): 1.1 ± 0.051 | relative viability ([2]; 3.333 µM): 1.02 ± 0.064 | relative viability ([2]; 10 µM): 0.0879 ± 0.01 | relative viability ([3]; 0.00017 µM): 1.15 ± 0.043 | relative viability ([3]; 0.00051 µM): 1.09 ± 0.048 | relative viability ([3]; 0.00152 µM): 1.11 ± 0.022 | relative viability ([3]; 0.00457 µM): 1.11 ± 0.022 | relative viability ([3]; 0.01372 µM): 1.12 ± 0.036 | relative viability ([3]; 0.04115 µM): 1.14 ± 0.028 | relative viability ([3]; 0.1235 µM): 1.13 ± 0.021 | relative viability ([3]; 0.3704 µM): 1.11 ± 0.03 | relative viability ([3]; 1.111 µM): 1.07 ± 0.017 | relative viability ([3]; 3.333 µM): 0.847 ± 0.034 | relative viability ([3]; 10 µM): 0.502 ± 0.024 | relative viability ([4]; 0.00017 µM): 1.06 ± 0.017 | relative viability ([4]; 0.00051 µM): 1.06 ± 0.022 | relative viability ([4]; 0.00152 µM): 1.06 ± 0.045 | relative viability ([4]; 0.00457 µM): 1.06 ± 0.019 | relative viability ([4]; 0.01372 µM): 1.07 ± 0.026 | relative viability ([4]; 0.04115 µM): 1.05 ± 0.038 | relative viability ([4]; 0.1235 µM): 1.04 ± 0.04 | relative viability ([4]; 0.3704 µM): 1.05 ± 0.035 | relative viability ([4]; 1.111 µM): 1.04 ± 0.064 | relative viability ([4]; 3.333 µM): 0.735 ± 0.014 | relative viability ([4]; 10 µM): 0.264 ± 0.011 | relative viability ([5]; 0.00017 µM): 1.08 ± 0.028 | relative viability ([5]; 0.00051 µM): 1.08 ± 0.015 | relative viability ([5]; 0.00152 µM): 1.05 ± 0.042 | relative viability ([5]; 0.00457 µM): 1.05 ± 0.038 | relative viability ([5]; 0.01372 µM): 1.05 ± 0.041 | relative viability ([5]; 0.04115 µM): 0.997 ± 0.035 | relative viability ([5]; 0.1235 µM): 0.829 ± 0.042 | relative viability ([5]; 0.3704 µM): 0.475 ± 0.014 | relative viability ([5]; 1.111 µM): 0.36 ± 0.033 | relative viability ([5]; 3.333 µM): 0.18 ± 0.0053 | relative viability ([5]; 10 µM): 0.0656 ± 0.0024 | relative viability ([6]; 0.00017 µM): 0.975 ± 0.058 | relative viability ([6]; 0.00051 µM): 0.993 ± 0.055 | relative viability ([6]; 0.00152 µM): 0.987 ± 0.031 | relative viability ([6]; 0.00457 µM): 0.979 ± 0.047 | relative viability ([6]; 0.01372 µM): 0.977 ± 0.047 | relative viability ([6]; 0.04115 µM): 0.978 ± 0.032 | relative viability ([6]; 0.1235 µM): 0.997 ± 0.027 | relative viability ([6]; 0.3704 µM): 1.022 ± 0.01 | relative viability ([6]; 1.111 µM): 0.983 ± 0.046 | relative viability ([6]; 3.333 µM): 0.62 ± 0.0081 | relative viability ([6]; 10 µM): 0.505 ± 0.044 | relative viability ([7]; 0.00017 µM): 1.034 ± 0.0051 | relative viability ([7]; 0.00051 µM): 1.04 ± 0.05 | relative viability ([7]; 0.00152 µM): 1.01 ± 0.028 | relative viability ([7]; 0.00457 µM): 1.05 ± 0.04 | relative viability ([7]; 0.01372 µM): 1.06 ± 0.032 | relative viability ([7]; 0.04115 µM): 1.06 ± 0.018 | relative viability ([7]; 0.1235 µM): 1.05 ± 0.025 | relative viability ([7]; 0.3704 µM): 0.997 ± 0.021 | relative viability ([7]; 1.111 µM): 0.956 ± 0.024 | relative viability ([7]; 3.333 µM): 0.544 ± 0.021 | relative viability ([7]; 10 µM): 0.206 ± 0.024 | relative viability ([8]; 0.00017 µM): 1.05 ± 0.036 | relative viability ([8]; 0.00051 µM): 1.053 ± 0.0094 | relative viability ([8]; 0.00152 µM): 1.04 ± 0.02 | relative viability ([8]; 0.00457 µM): 1.03 ± 0.074 | relative viability ([8]; 0.01372 µM): 1.07 ± 0.025 | relative viability ([8]; 0.04115 µM): 1.09 ± 0.041 | relative viability ([8]; 0.1235 µM): 1.09 ± 0.044 | relative viability ([8]; 0.3704 µM): 1.07 ± 0.02 | relative viability ([8]; 1.111 µM): 0.958 ± 0.036 | relative viability ([8]; 3.333 µM): 0.104 ± 0.0054 | relative viability ([8]; 10 µM): 0.0396 ± 0.00099 | relative viability ([9]; 0.00017 µM): 1.08 ± 0.038 | relative viability ([9]; 0.00051 µM): 1.06 ± 0.039 | relative viability ([9]; 0.00152 µM): 1.08 ± 0.034 | relative viability ([9]; 0.00457 µM): 1.05 ± 0.015 | relative viability ([9]; 0.01372 µM): 1.06 ± 0.034 | relative viability ([9]; 0.04115 µM): 1.05 ± 0.051 | relative viability ([9]; 0.1235 µM): 1.04 ± 0.014 | relative viability ([9]; 0.3704 µM): 1.03 ± 0.032 | relative viability ([9]; 1.111 µM): 0.85 ± 0.034 | relative viability ([9]; 3.333 µM): 0.416 ± 0.017 | relative viability ([9]; 10 µM): 0.0427 ± 0.0027 | relative viability ([10]; 0.00017 µM): 0.962 ± 0.05 | relative viability ([10]; 0.00051 µM): 1.01 ± 0.022 | relative viability ([10]; 0.00152 µM): 0.985 ± 0.049 | relative viability ([10]; 0.00457 µM): 1 ± 0.036 | relative viability ([10]; 0.01372 µM): 1.02 ± 0.044 | relative viability ([10]; 0.04115 µM): 0.996 ± 0.045 | relative viability ([10]; 0.1235 µM): 1.01 ± 0.048 | relative viability ([10]; 0.3704 µM): 1 ± 0.064 | relative viability ([10]; 1.111 µM): 0.957 ± 0.03 | relative viability ([10]; 3.333 µM): 0.676 ± 0.03 | relative viability ([10]; 10 µM): 0.437 ± 0.013 | relative viability ([11]; 0.00017 µM): 0.9225 ± 0.0047 | relative viability ([11]; 0.00051 µM): 0.948 ± 0.017 | relative viability ([11]; 0.00152 µM): 0.969 ± 0.017 | relative viability ([11]; 0.00457 µM): 0.965 ± 0.017 | relative viability ([11]; 0.01372 µM): 0.98 ± 0.013 | relative viability ([11]; 0.04115 µM): 0.992 ± 0.048 | relative viability ([11]; 0.1235 µM): 0.977 ± 0.028 | relative viability ([11]; 0.3704 µM): 0.9545 ± 0.0092 | relative viability ([11]; 1.111 µM): 0.925 ± 0.025 | relative viability ([11]; 3.333 µM): 0.594 ± 0.062 | relative viability ([11]; 10 µM): 0.0858 ± 0.0061 | relative viability ([12]; 0.00017 µM): 0.964 ± 0.024 | relative viability ([12]; 0.00051 µM): 0.986 ± 0.046 | relative viability ([12]; 0.00152 µM): 1.01 ± 0.041 | relative viability ([12]; 0.00457 µM): 0.988 ± 0.023 | relative viability ([12]; 0.01372 µM): 0.976 ± 0.032 | relative viability ([12]; 0.04115 µM): 0.982 ± 0.041 | relative viability ([12]; 0.1235 µM): 0.955 ± 0.037 | relative viability ([12]; 0.3704 µM): 0.89 ± 0.033 | relative viability ([12]; 1.111 µM): 0.773 ± 0.0087 | relative viability ([12]; 3.333 µM): 0.445 ± 0.011 | relative viability ([12]; 10 µM): 0.163 ± 0.0031
